Tests used:
ALOMY [1] = experiment: Pre-emergence action against ALOMY, 1280 g/ha; type: in vivo, Alopecurus myosuroides; conditions: visual scoring after about 3 weeks vs untreated controls, 100% = plants have died, 0% = like control plants
Outline: (§1)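 Mono- and dicot weed seeds sown in sandy loam were treated on the covering soil surface with WP or EC formulations plus 0.5% additive at 600 L water/ha. Pots stayed in a greenhouse; damage was scored visually after ~3 weeks as percent versus untreated controls (100% = dead).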

DIGSA [2] = experiment: Pre-emergence action against DIGSA, 1280 g/ha; type: in vivo, Digitaria sanguinalis; conditions: visual scoring after about 3 weeks vs untreated controls, 100% = plants have died, 0% = like control plants
Outline: as §1

ECHCG [3] = experiment: Pre-emergence action against ECHCG, 1280 g/ha; type: in vivo, Echinochloa crus-galli; conditions: visual scoring after about 3 weeks vs untreated controls, 100% = plants have died, 0% = like control plants
Outline: as §1

LOLRI [4] = experiment: Pre-emergence action against LOLRI, 1280 g/ha; type: in vivo, Lolium rigidum; conditions: visual scoring after about 3 weeks vs untreated controls, 100% = plants have died, 0% = like control plants
Outline: as §1

POAAN [5] = experiment: Pre-emergence action against POAAN, 1280 g/ha; type: in vivo, Poa annua; conditions: visual scoring after about 3 weeks vs untreated controls, 100% = plants have died, 0% = like control plants
Outline: as §1

SETVI [6] = experiment: Pre-emergence action against SETVI, 1280 g/ha; type: in vivo, Setaria viridis; conditions: visual scoring after about 3 weeks vs untreated controls, 100% = plants have died, 0% = like control plants
Outline: as §1

ABUTH [7] = experiment: Pre-emergence action against ABUTH, 1280 g/ha; type: in vivo, Abutilon theophrasti; conditions: scored visually after about 3 weeks vs untreated controls (100% = plants have died)
Outline: as §1

AMARE [8] = experiment: Pre-emergence action against AMARE, 1280 g/ha; type: in vivo, Amaranthus retroflexus; conditions: scored visually after about 3 weeks vs untreated controls (100% = plants have died)
Outline: as §1

KCHSC = experiment: Pre-emergence action against KCHSC, 1280 g/ha; type: in vivo, Bassia scoparia; conditions: scored visually after about 3 weeks vs untreated controls (100% = plants have died)
Outline: as §1

MATIN [9] = experiment: Pre-emergence action against MATIN, 1280 g/ha; type: in vivo, Tripleurospermum inodorum (Matricaria inodora); conditions: scored visually after about 3 weeks vs untreated controls (100% = plants have died)
Outline: as §1

STEME [10] = experiment: Pre-emergence action against STEME, 1280 g/ha; type: in vivo, Stellaria media; conditions: scored visually after about 3 weeks vs untreated controls (100% = plants have died)
Outline: as §1

VERPE [11] = experiment: Pre-emergence action against VERPE, 1280 g/ha; type: in vivo, Veronica persica; conditions: scored visually after about 3 weeks vs untreated controls (100% = plants have died)
Outline: as §1

ALOMY [12] = experiment: Pre-emergence action at 320 g/ha against ALOMY; type: in vivo, Alopecurus myosuroides; conditions: scored visually after about 3 weeks vs untreated controls (100% = plants have died)
Outline: (§2)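 Application: aqueous WP or EC with 0.5% additive on soil covering seeds, 600 l/ha. Read-out: visual percent damage after ~3 weeks in greenhouse, untreated pots as reference.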

AVEFA = experiment: Pre-emergence action at 320 g/ha against AVEFA; type: in vivo; conditions: visual scoring after about 3 weeks vs untreated controls
Outline: as §2

DIGSA [13] = experiment: Pre-emergence action at 320 g/ha against DIGSA; type: in vivo, Digitaria sanguinalis; conditions: visual scoring after about 3 weeks vs untreated controls
Outline: as §2

ECHGC = experiment: Pre-emergence action at 320 g/ha against ECHGC; type: in vivo, Echinochloa crus-galli; conditions: visual scoring after about 3 weeks vs untreated controls
Outline: as §2

LOLRI [14] = experiment: Pre-emergence action at 320 g/ha against LOLRI; type: in vivo, Lolium rigidum; conditions: visual scoring after about 3 weeks vs untreated controls
Outline: as §2

SETVI [15] = experiment: Pre-emergence action at 320 g/ha against SETVI; type: in vivo, Setaria viridis; conditions: visual scoring after about 3 weeks vs untreated controls
Outline: as §2

ABUTH [16] = experiment: Pre-emergence action at 320 g/ha against ABUTH; type: in vivo, Abutilon theophrasti; conditions: greenhouse, scored visually after about 3 weeks vs untreated controls, 100% = plants have died, 0% = like control plants
From the text: b) Seeds of monocotyledonous and dicotyledonous weed plants and crop plants are placed in plastic or organic planting pots and covered with soil. The compounds of the invention, formulated in the form of wettable powders (WP) or as emulsion concentrates (EC), are then applied onto the surface of the covering soil as aqueous suspension or emulsion with addition of 0.5% additive at a water application rate of 600 l/ha (converted). After the treatment, the pots are placed in a greenhouse and kept under good growth conditions for the trial plants. After about 3 weeks, the effect of the preparations is scored visually in comparison with untreated controls as percentages. For example, 100% activity=the plants have died, 0% activity=like control plants. Tables 13 to 26 below show the effects of selected compounds of the general formula (I) on various harmful plants and at an application rate corresponding to 320 g/ha, which were obtained by the experimental procedure mentioned above.

AMARE [17] = experiment: Pre-emergence action at 320 g/ha against AMARE; type: in vivo, Amaranthus retroflexus; conditions: visual scoring after about 3 weeks vs untreated controls
Outline: as §2

MATIN [18] = experiment: Pre-emergence action at 320 g/ha against MATIN; type: in vivo, Tripleurospermum inodorum (Matricaria inodora); conditions: visual scoring after about 3 weeks vs untreated controls
Outline: as §2

PHBPU = experiment: Pre-emergence action at 320 g/ha against PHBPU; type: in vivo; conditions: visual scoring after about 3 weeks vs untreated controls
Outline: as §2

POLCO = experiment: Pre-emergence action at 320 g/ha against POLCO; type: in vivo, Fallopia convolvulus (Polygonum convolvulus); conditions: visual scoring after about 3 weeks vs untreated controls
Outline: as §2

VERPE [19] = experiment: Pre-emergence action at 320 g/ha against VERPE; type: in vivo, Veronica persica; conditions: visual scoring after about 3 weeks vs untreated controls
Outline: as §2

VIOTR = experiment: Pre-emergence action at 320 g/ha against VIOTR; type: in vivo, Viola tricolor; conditions: dosage 320 g/ha
Outline: as §2

ALOMY [20] = experiment: Post-emergence action against ALOMY, 1.28 kg/ha; type: in vivo, Alopecurus myosuroides; conditions: dosage 1280 g/ha, visual rating about 3 weeks after treatment vs untreated controls
Outline: (§3)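 Weeds grown in sandy loam in a greenhouse were sprayed at the one-leaf stage, 2–3 weeks after sowing, with WP or EC formulations in water containing 0.5% additive at 600 L/ha. About 3 weeks later, damage was scored visually versus untreated controls (0% = like control, 100% = dead).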

DIGSA [21] = experiment: Post-emergence action against DIGSA, 1.28 kg/ha; type: in vivo, Digitaria sanguinalis; conditions: dosage 1280 g/ha, visual rating about 3 weeks after treatment vs untreated controls
Outline: as §3

ECHCG [22] = experiment: Post-emergence action against ECHCG, 1.28 kg/ha; type: in vivo, Echinochloa crus-galli; conditions: dosage 1280 g/ha, visual rating about 3 weeks after treatment vs untreated controls
Outline: as §3

LOLRI [23] = experiment: Post-emergence action against LOLRI, 1.28 kg/ha; type: in vivo, Lolium rigidum; conditions: dosage 1280 g/ha, visual rating about 3 weeks after treatment vs untreated controls
Outline: as §3

POAAN [24] = experiment: Post-emergence action against POAAN, 1.28 kg/ha; type: in vivo, Poa annua; conditions: dosage 1280 g/ha, visual rating about 3 weeks after treatment vs untreated controls
Outline: as §3

SETVI [25] = experiment: Post-emergence action against SETVI, 1.28 kg/ha; type: in vivo, Setaria viridis; conditions: dosage 1280 g/ha, visual rating about 3 weeks after treatment vs untreated controls
Outline: as §3

ABUTH [26] = experiment: Post-emergence action against ABUTH, 1.28 kg/ha; type: in vivo, Abutilon theophrasti; conditions: dosage 1280 g/ha, visual rating about 3 weeks after treatment vs untreated controls (100% = plants died)
Outline: as §3

AMARE [27] = experiment: Post-emergence action against AMARE, 1.28 kg/ha; type: in vivo, Amaranthus retroflexus; conditions: dosage 1280 g/ha, visual rating about 3 weeks after treatment vs untreated controls (100% = plants died)
Outline: as §3

MATIN [28] = experiment: Post-emergence action against MATIN, 1.28 kg/ha; type: in vivo, Tripleurospermum inodorum (Matricaria inodora); conditions: dosage 1280 g/ha, visual rating about 3 weeks after treatment vs untreated controls (100% = plants died)
Outline: as §3

STEME [29] = experiment: Post-emergence action against STEME, 1.28 kg/ha; type: in vivo, Stellaria media; conditions: dosage 1280 g/ha, visual rating about 3 weeks after treatment vs untreated controls (100% = plants died)
Outline: as §3

VERPE [30] = experiment: Post-emergence action against VERPE, 1.28 kg/ha; type: in vivo, Veronica persica; conditions: dosage 1280 g/ha, visual rating about 3 weeks after treatment vs untreated controls (100% = plants died)
Outline: as §3

N#CCCOC(=O)COc1nn(-c2ccccc2F)c(-c2ccc(F)nc2)c1Br [VII-104]
90%: Pre-emergence action against ABUTH (ABUTH [7]) | Pre-emergence action against KCHSC (KCHSC) | Pre-emergence action against AVEFA in % (AVEFA) | Pre-emergence action against POLCO in % (POLCO) | Post-emergence action against SETVI (SETVI [25]) | Post-emergence action against ABUTH (ABUTH [26]) | Post-emergence action against AMARE (AMARE [27]) | Post-emergence action against STEME (STEME [29]) | Post-emergence action against VERPE (VERPE [30])
80%: Pre-emergence action at 320 g/ha against ABUTH in % (ABUTH [16])
100%: Pre-emergence action against ALOMY (ALOMY [1]) | Pre-emergence action against DIGSA (DIGSA [2]) | Pre-emergence action against ECHCG (ECHCG [3]) | Pre-emergence action against LOLRI (LOLRI [4]) | Pre-emergence action against POAAN (POAAN [5]) | Pre-emergence action against SETVI (SETVI [6]) | Pre-emergence action against AMARE (AMARE [8]) | Pre-emergence action against MATIN (MATIN [9]) | Pre-emergence action against STEME (STEME [10]) | Pre-emergence action against VERPE (VERPE [11]) | Pre-emergence action at 320 g/ha against ALOMY in % (ALOMY [12]) | Pre-emergence action against DIGSA in % (DIGSA [13]) | Pre-emergence action against ECHGC in % (ECHGC) | Pre-emergence action against LOLRI in % (LOLRI [14]) | Pre-emergence action against SETVI in % (SETVI [15]) | Pre-emergence action against AMARE in % (AMARE [17]) | Pre-emergence action against MATIN in % (MATIN [18]) | Pre-emergence action against PHBPU in % (PHBPU) | Pre-emergence action against VERPE in % (VERPE [19]) | Pre-emergence action against VIOTR in % (VIOTR) | Post-emergence action against ALOMY (ALOMY [20]) | Post-emergence action against DIGSA (DIGSA [21]) | Post-emergence action against ECHCG (ECHCG [22]) | Post-emergence action against LOLRI (LOLRI [23]) | Post-emergence action against POAAN (POAAN [24]) | Post-emergence action against MATIN (MATIN [28])

COC(=O)[C@@H](C)Oc1nn(-c2cc(F)ccc2F)c(-c2cncc(F)c2)c1I [VII-135]
90%: Pre-emergence action against AVEFA in % (AVEFA) | Pre-emergence action against ECHGC in % (ECHGC) | Pre-emergence action against MATIN in % (MATIN [18]) | Pre-emergence action against PHBPU in % (PHBPU)
80%: Pre-emergence action at 320 g/ha against ABUTH in % (ABUTH [16])
100%: Pre-emergence action at 320 g/ha against ALOMY in % (ALOMY [12]) | Pre-emergence action against LOLRI in % (LOLRI [14]) | Pre-emergence action against SETVI in % (SETVI [15]) | Pre-emergence action against AMARE in % (AMARE [17]) | Pre-emergence action against POLCO in % (POLCO) | Pre-emergence action against VERPE in % (VERPE [19]) | Pre-emergence action against VIOTR in % (VIOTR)

CCOC(=O)[C@@H](C)Oc1nn(-c2cc(F)ccc2F)c(-c2cncc(F)c2)c1Br [VII-136]
80%: Pre-emergence action at 320 g/ha against ABUTH in % (ABUTH [16])
100%: Pre-emergence action at 320 g/ha against ALOMY in % (ALOMY [12]) | Pre-emergence action against SETVI in % (SETVI [15]) | Pre-emergence action against AMARE in % (AMARE [17]) | Pre-emergence action against POLCO in % (POLCO) | Pre-emergence action against VERPE in % (VERPE [19]) | Pre-emergence action against VIOTR in % (VIOTR)
90%: Pre-emergence action against AVEFA in % (AVEFA) | Pre-emergence action against ECHGC in % (ECHGC) | Pre-emergence action against LOLRI in % (LOLRI [14]) | Pre-emergence action against MATIN in % (MATIN [18]) | Pre-emergence action against PHBPU in % (PHBPU)
